Laboratory results from patent US20100152235A1, “OXADIAZOLE DERIVATIVES ACTIVE ON SPHINGOSINE-1-PHOSPHATE (S1P)” (priority 2007, published 2010).
Where a name gives a salt, the structure may show the parent alone.

system: circulating lymphocytes; experiment: not given; settings: animals and man, literature; cited from earlier work

SMILES | effect on circulating lymphocytes
CCCCCCCCc1ccc(CCC(N)(CO)CO)cc1 [FTY720] | reduce circulating lymphocytes in animals and man

molecular target: T1, human S1P1 receptor (Homo sapiens, UniProt P21453); experiment: S1P1 GTPγS assay; type: biochemical; settings: [35S]-GTPγS SPA, membranes of rat hepatoma cells expressing human S1P1, agonist
T1 construct: expressed in transfected cells; membranes
T1 sequence (P21453 whole entry): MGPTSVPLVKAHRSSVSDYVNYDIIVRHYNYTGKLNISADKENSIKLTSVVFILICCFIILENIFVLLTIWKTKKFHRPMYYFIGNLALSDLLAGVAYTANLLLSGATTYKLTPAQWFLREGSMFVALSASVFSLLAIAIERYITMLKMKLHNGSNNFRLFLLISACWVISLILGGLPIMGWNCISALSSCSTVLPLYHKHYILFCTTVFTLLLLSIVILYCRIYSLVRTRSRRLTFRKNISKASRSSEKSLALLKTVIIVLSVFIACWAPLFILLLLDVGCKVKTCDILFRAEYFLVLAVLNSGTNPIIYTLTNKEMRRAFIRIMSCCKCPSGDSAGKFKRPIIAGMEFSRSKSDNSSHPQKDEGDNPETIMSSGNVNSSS
Experimental: (§1) For membrane preparations all steps were performed at 4° C. Rat hepatoma cells stably expressing the human S1P1 receptor or Rat Basophilic Leukaemia cells (RBL) stably expressing human S1P3 receptor were grown to 80% confluency before being harvested into 10 ml Phospho-Buffered Saline (PBS) and centrifuged at 1200 rpm for 5 minutes. After removal of the supernatant, the pellet was re-suspended and cells were homogenised within a glass Waring blender for 2 bursts of 15 secs in 200 mls of buffer (50 mM HEPES, 1 mM leupeptin, 25 μg/ml bacitracin, 1 mM EDTA, 1 mM PMSF, 2 μM pepstatin A). The blender was plunged into ice for 5 mins after the first burst and 10-40 mins after the final burst to allow foam to dissipate. The material was then spun at 500 g for 20 mins and the supernatant spun for 36 mins at 48,000 g. The pellet was resuspended in the same buffer as above but without PMSF and pepstatin A. The material was then forced through a 0.6 mm needle, made up to the required volume, (usually ×4 the volume of the original cell pellet), aliquoted and stored frozen at −80° C.
as §1, with “All” for “For membrane preparations all”, “Cells” for “Rat hepatoma cells stably expressing the human S1P1 receptor or Rat Basophilic Leukaemia cells (RBL) stably expressing human S1P3 receptor were grown to 80% confluency before being harvested into 10 ml Phospho-Buffered Saline (PBS) and centrifuged at 1200 rpm for 5 minutes. After removal of the supernatant, the pellet was re-suspended and cells”
Human S1P1 rat hepatoma membranes (1.5 μg/well) were adhered to a wheatgerm agglutinin (WGA)-coated scintillation proximity assay (SPA) beads (0.125 mg/well) in assay buffer (HEPES 20 mM, MgCl2 10 mM, NaCl 100 mM and pH adjusted to 7.4 using KOH 5 M, GDP 10 μM FAC (final assay concentration) and saponin 90 μg/ml FAC was also added).
After 30 minutes pre-coupling on ice the bead and membrane suspension was dispensed into a white Greiner polypropylene LV384-well plate ([…]), containing 0.1 μl of the compound. […] [^35S]-GTPγS (0.5 nM final radioligand conc) made up in assay buffer was then added to agonist plates. The final assay cocktail (10.1 μl) was then centrifuged at 1000 rpm for 5 minutes then read immediately on a Viewlux reader.
All test compounds were dissolved in DMSO at a concentration of 10 mM and were prepared in 100% DMSO using a 1 in 4 dilution step to provide 11 point dose response curves. The dilutions were transferred to the assay plates ensuring that the DMSO concentration was constant across the plate for all assays.
All data was normalized to the mean of 16 high and 16 low control wells on each plate. A four parameter curve fit was then applied.
S1P1 expressing RH7777 membranes (1.5 μg/well) […] were homogenised by passing through a 23G needle. These were then adhered to WGA-coated SPA beads (0.125 mg/well) in assay buffer (HEPES 20 mM, MgCl2 10 mM, NaCl 100 mM and pH adjusted to 7.4 using KOH 5M). GDP […] FAC and saponin 90 μg/ml FAC were also added.
After 30 minutes precoupling on ice, the bead and membrane suspension was dispensed into white Greiner polypropylene LV 384-well plates (5 μl/well), containing 0.1 μl of compound. 5 μl/well [^35S]-GTPγS (0.5 nM for S1P1 or 0.3 nM for S1P3 final radioligand concentration) made in assay buffer was then added to the plates. The final assay cocktail (10.1 μl) was then sealed, spun on a centrifuge, then read immediately on a Viewlux instrument.

SMILES | EC50
CC(C)Oc1ccc(-c2nc(-c3cccc4c3CCN(C)C4)no2)cc1C#N [Example 7, 2-[(1-methylethyl)oxy]-5-[3-(2-methyl-1,2,3,4-tetrahydro-5-isoquinolinyl)-1,2,4-oxadiazol-5-yl]benzonitrile] | < 100 nM
Cc1c(-c2noc(-c3ccc(OC(C)C)c(Cl)c3)n2)ccc2c1CCN(CC(=O)O)C2 [Example 9, [6-(5-{3-Chloro-4-[(1-methylethyl)oxy]phenyl}-1,2,4-oxadiazol-3-yl)-5-methyl-3,4-dihydro-2(1H)-isoquinolinyl]acetic acid] | < 100 nM
Cc1c(-c2noc(-c3ccc(OC(C)C)c(C#N)c3)n2)ccc2c1CCNC2 [Example 11, 2-[(1-Methylethyl)oxy]-5-[3-(5-methyl-1,2,3,4-tetrahydro-6-isoquinolinyl)-1,2,4-oxadiazol-5-yl]benzonitrile trifluoroacetic acid salt] | < 100 nM
Cc1c(-c2noc(-c3ccc(OC(C)C)c(C#N)c3)n2)ccc2c1CCN(CC(=O)O)C2 [Example 12, [6-(5-{3-Cyano-4-[(1-methylethyl)oxy]phenyl}-1,2,4-oxadiazol-3-yl)-5-methyl-3,4-dihydro-2(1H)-isoquinolinyl]acetic acid] | < 100 nM
Cc1c(-c2noc(-c3ccc(OC(C)C)c(C#N)c3)n2)ccc2c1CCN(CCC(=O)O)C2 [Example 13, 3-[6-(5-{3-Cyano-4-[(1-methylethyl)oxy]phenyl}-1,2,4-oxadiazol-3-yl)-5-methyl-3,4-dihydro-2(1H)-isoquinolinyl]propanoic acid sodium salt] | < 100 nM

Now from value to compound:

EC50 | SMILES
< 100 nM | CC(C)Oc1ccc(-c2nc(-c3cccc4c3CCNC4)no2)cc1Cl [Example 1, 5-(5-{3-chloro-4-[(1-methylethyl)oxy]phenyl}-1,2,4-oxadiazol-3-yl)-1,2,3,4-tetrahydroisoquinoline hydrochloride]
< 10 nM | CC(C)Oc1ccc(-c2nc(-c3cccc4c3CCNC4)no2)cc1C#N [Example 2, 2-[(1-methylethyl)oxy]-5-[3-(1,2,3,4-tetrahydro-5-isoquinolinyl)-1,2,4-oxadiazol-5-yl]benzonitrile hydrochloride]
< 100 nM | CC(C)Oc1ccc(-c2nc(-c3cccc4c3CCNC4)no2)cc1C#N [Example 3, 2-[(1-methylethyl)oxy]-5-[3-(1,2,3,4-tetrahydro-5-isoquinolinyl)-1,2,4-oxadiazol-5-yl]benzonitrile]
< 10 nM | CC(C)Oc1ccc(-c2nc(-c3cccc4c3CCN(CC(=O)O)C4)no2)cc1C#N [Example 4, [5-(5-{3-cyano-4-[(1-methylethyl)oxy]phenyl}-1,2,4-oxadiazol-3-yl)-3,4-dihydro-2(1H)-isoquinolinyl]acetic acid hydrochloride]
< 100 nM | CC(C)Oc1ccc(-c2nc(-c3cccc4c3CCN(CCC(=O)O)C4)no2)cc1C#N [Example 5, 3-[5-(5-{3-cyano-4-[(1-methylethyl)oxy]phenyl}-1,2,4-oxadiazol-3-yl)-3,4-dihydro-2(1H)-isoquinolinyl]propanoic acid hydrochloride]
< 10 nM | CC(C)Oc1ccc(-c2nc(-c3cccc4c3CCN(CCCC(=O)O)C4)no2)cc1C#N [Example 6, 4-[5-(5-{3-cyano-4-[(1-methylethyl)oxy]phenyl}-1,2,4-oxadiazol-3-yl)-3,4-dihydro-2(1H)-isoquinolinyl]butanoic acid hydrochloride]
< 10 nM | Cc1c(-c2noc(-c3ccc(OC(C)C)c(Cl)c3)n2)ccc2c1CCN(CCC(=O)O)C2 [Example 8, 3-[6-(5-{3-Chloro-4-[(1-methylethyl)oxy]phenyl}-1,2,4-oxadiazol-3-yl)-5-methyl-3,4-dihydro-2(1H)-isoquinolinyl]propanoic acid]

system: not given; experiment: not given; settings: clinical studies, first 24 hours of treatment, literature; cited from earlier work

SMILES | bradycardia
CCCCCCCCc1ccc(CCC(N)(CO)CO)cc1 [FTY720] | results in bradycardia in the first 24 hours of treatment
